# In US11285144B2, “Use of CDK8 inhibitors to treat diseases of inflammation and autoimmunity” (THE BROAD INSTITUTE, INC., priority 2016, dated 2022):
# Assays:
# responder CD4+ T cells = experiment: Treg suppression of responder CD4+ T cell proliferation in vitro; type: cell-based, mouse; settings: Tregs generated in the presence of CDK8 inhibitor
# Method: FIG. 19—Suppressing T-cell proliferation in vitro. Treg cells are co-cultured at increasing dilutions with CFSE-labeled responder CD4+ T cells and their ability to suppress responder T cell proliferation upon anti-CD3/CD28 stimulation is assessed. Naive CD4+ T cells from Foxp3IRES-GFP mice were cultured under either optimal conditions for Treg differentiation (Treg Hi) or sub-optimal Treg differentiation conditions in the presence of BRD6989. The resulting GFP+ Treg cells were sorted by FACS. […] Assay was performed as described in eLife 2015; 4:e05920.
# Imbalances between anti-inflammatory (FoxP3+ Treg) and pro-inflammatory (TH1 and TH17) CD4+ T cell lineages can lead to pathogenic inflammations in a number of diseases contexts. Therapeutic strategies that enhance FoxP3+ Treg differentiation and/or function are being pursued for treatment of immune and inflammatory disorders. Treatment of naïve CD4+ T cells in the presence of multiple structural classes of CDK8 inhibitors can enhance differentiation into FoxP3+Tregs (FIG. 16).
# [1] = tested on: naïve, splenic CD4+ T cells; experiment: IL-10 production during ex vivo differentiation of Tregs; type: cell-based
# Method: FIG. 10—Cellular activities of CDK8 inhibitors. […] (b) Effect of CDK7 inhibitor THZ1 on viability and IL-10 production of R848-stimulated BMDCs (each point corresponds to mean±S.D.; n=4 biological replicates from 1 independent experiment). (c) IL-10 levels were quantified in tissue culture media generated during differentiation of naïve, splenic CD4+ T cells into Treg's in the presence of dCA (0.1 μM) or BRD6989 (5 μM) (each point correspond to mean±S.D.; n=3 biological replicates from 1 independent experiment; *, P<0.05; n.s., not significant using one-way ANOVA with Dunnett's post-test). Data from all panels is representative of at least 2 independent experiments.
# Pre-treatment with these CDK8/19 inhibitors recapitulated the IL-10 potentiating activity of BRD6989 in both BMDCs (FIG. 9b) along with human DCs derived from two independent donors in the context of R848 stimulation (FIGS. 9c and 10a).
# [2] = tested on: Cyclin C/CDK8 complexes in BMDCs; experiment: Cytokine production by R848-stimulated BMDCs from CcncΔ/Δ or Ccncf/f mice; type: cell-based, mouse
# Method: Next, to determine whether IL-10 potentiation by CDK8 inhibitors requires functional Cyclin C/CDK8 complexes, differentiation was performed of BMDCs from CcncΔ/Δ mice in which Cyclin C can be specifically disrupted in hematopoietic cells relative to Ccncf/f littermates, which lack the polyinosinic:polycytidylic acid (polyI:C)-responsive Mx1-Cre (Li et al., Nature Cell Biology 16; 1080, 2014) (FIG. 11a). […] The impaired response of BMDCs lacking Cyclin C to BRD6989 and dCA are consistent with a model in which CDK8 restrains IL-10 production during activation of wild type myeloid cells.
# [3] = molecular target: recombinant Cyclin C/CDK19 (Homo sapiens, UniProt Q9BWU1); experiment: Kinase activity of recombinant Cyclin C/CDK19; type: biochemical; settings: recombinant complex
# From the text: Together, these kinase profiling, binding assay, enzyme inhibition and cell-based data identify the Mediator-associated kinases CDK8, and to a lesser degree CDK19, as molecular targets of BRD6989.
# Sequence of recombinant Cyclin C/CDK19 (Q9BWU1 whole entry, species assumed): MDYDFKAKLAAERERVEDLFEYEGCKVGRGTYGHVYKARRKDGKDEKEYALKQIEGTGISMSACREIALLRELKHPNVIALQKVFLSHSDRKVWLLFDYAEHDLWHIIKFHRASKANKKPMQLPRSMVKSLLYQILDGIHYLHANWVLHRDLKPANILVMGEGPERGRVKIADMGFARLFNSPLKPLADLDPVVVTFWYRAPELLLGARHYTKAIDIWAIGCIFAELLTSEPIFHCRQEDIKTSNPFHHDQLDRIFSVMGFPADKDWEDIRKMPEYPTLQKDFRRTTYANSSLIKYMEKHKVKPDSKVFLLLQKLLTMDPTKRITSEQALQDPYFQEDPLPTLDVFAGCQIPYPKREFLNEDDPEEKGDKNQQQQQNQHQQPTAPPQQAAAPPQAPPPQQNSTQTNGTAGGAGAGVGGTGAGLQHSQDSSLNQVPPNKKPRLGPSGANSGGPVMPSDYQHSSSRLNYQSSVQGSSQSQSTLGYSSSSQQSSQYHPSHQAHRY
# Sequence of recombinant Cyclin C/CDK19 (P24863 whole entry partner, species assumed): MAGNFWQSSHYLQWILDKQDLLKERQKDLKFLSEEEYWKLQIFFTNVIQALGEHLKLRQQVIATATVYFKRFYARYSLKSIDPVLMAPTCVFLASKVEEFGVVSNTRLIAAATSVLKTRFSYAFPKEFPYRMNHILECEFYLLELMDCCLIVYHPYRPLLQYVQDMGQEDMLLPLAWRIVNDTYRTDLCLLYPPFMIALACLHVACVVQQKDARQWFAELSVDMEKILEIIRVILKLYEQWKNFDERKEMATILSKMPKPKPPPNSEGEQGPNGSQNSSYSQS
smiles,measurement,setting,value
CC1CCc2nc(N)c(C#N)c(-c3cccnc3)c2C1 (stereo not drawn) [BRD6989],suppression of CD4+ T cell proliferation by inhibitor-induced Tregs,responder CD4+ T cells,suppressed the proliferation of co-cultured responder CD4+ T cells in vitro at each dilution
same,IL-10 production during Treg differentiation,[1],neither dCA nor BRD6989 dramatically increased IL-10 production
same,IL-10 upregulation in Ccncf/f BMDCs,[2],remained intact
same,IL-10 upregulation in CcncΔ/Δ BMDCs,[2]; Cyclin C deleted,failed to upregulate IL-10
same,IL-6 production in CcncΔ/Δ BMDCs,[2]; saturating concentrations,no further reduction
same,IC50,[3],> 30 µM
